Laboratory results published in patent US20230277630A1, “METHODS AND COMPOSITIONS FOR TREATING AMYOTROPHIC LATERAL SCLEROSIS” (Amylyx Pharmaceuticals, Inc., priority 2022, published 2023).
Where “and” joins values, the source holds several entries; their conditions need not be identical. Identical values can stand only once. Counter-ions that a name gives are not always drawn.

How the values were obtained:
P-gp and BCRP = P-gp and BCRP substrate assessment, bidirectional permeability in C2BBe1 cells; conditions: for AP-to-BL Papp / BL-to-AP Papp / Papp A→B at 10 µM / Papp B→A at 10 µM: C2BBe1 cells, 10 μM probe; for Papp A→B at 10 µM / recovery at 10 μM / Papp B→A at 10 µM: human; for Papp A→B at 10 µM: Caco-2, pH 7.4, AP-to-BL Papp; for Papp B→A at 10 µM: Caco-2, pH 7.4, BL-to-AP Papp
Experimental: The P-gp and BCRP substrate assessment was conducted in C2BBe1 cell monolayers. […] LY was co-dosed with each dosing solution at a nominal concentration of 200 μM.
The cell culture medium was aspirated, and the cell monolayers were rinsed once with HBSSg_7.4. […] For receiver samples, aliquots (300 μL) were taken at pre-selected time points. […] For donor samples, aliquots (50 μL) were taken at pre-selected time points without replacement.

BCRP = target: T1, BCRP (Homo sapiens, UniProt Q9UNQ0); assay: BCRP IC50 assessment, bidirectional cladribine transport in BCRP-MDCK cells; conditions: BCRP-MDCK cells, 10 μM cladribine alone or + TUDCA/PB Solution or 0.5 μM Ko143; single replicates
T1 sequence (Q9UNQ0 1-655): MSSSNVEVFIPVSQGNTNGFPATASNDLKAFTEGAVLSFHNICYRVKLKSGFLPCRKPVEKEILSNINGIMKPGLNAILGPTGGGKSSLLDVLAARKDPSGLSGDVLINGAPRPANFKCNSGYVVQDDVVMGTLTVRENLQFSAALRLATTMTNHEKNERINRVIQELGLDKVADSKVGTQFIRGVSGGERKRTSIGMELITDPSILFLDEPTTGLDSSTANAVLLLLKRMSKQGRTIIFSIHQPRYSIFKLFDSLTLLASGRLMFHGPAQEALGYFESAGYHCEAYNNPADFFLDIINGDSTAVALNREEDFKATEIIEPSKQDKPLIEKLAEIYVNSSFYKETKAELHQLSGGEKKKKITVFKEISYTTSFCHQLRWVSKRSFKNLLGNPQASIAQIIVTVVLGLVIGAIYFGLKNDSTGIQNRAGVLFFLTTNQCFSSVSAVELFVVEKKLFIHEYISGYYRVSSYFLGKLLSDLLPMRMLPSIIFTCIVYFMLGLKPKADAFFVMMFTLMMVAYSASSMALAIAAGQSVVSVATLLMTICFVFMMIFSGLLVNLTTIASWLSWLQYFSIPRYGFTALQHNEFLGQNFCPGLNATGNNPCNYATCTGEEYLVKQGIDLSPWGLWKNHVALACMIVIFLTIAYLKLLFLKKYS
Experimental: (§1) After 30 minutes, the pre-incubation solution was aspirated.

CYP2C9 = CYP2C9 (Homo sapiens, UniProt P11712); assay: in vitro; conditions: microsomes; for % of Control Enzyme Activity: 30 min, pH 7.4
Experimental: CYP TDI was evaluated by a 30-minute pre-incubation of the TA with HLM in the presence and absence of NADPH followed by the CYP enzyme activity assay. […] The total organic solvent content in the final incubation was less than 1% (DMSO ≤0.1%, other organic solvent ≤1%). The CYP reactions were initiated by adding an individual CYP probe substrate with (when NADPH was not added in the pre-incubation step) or without (when NADPH was added in the pre-incubation step) the addition of NADPH (1 mM). The reaction mixture was incubated at 37° C. for 10-30 minutes depending on the individual CYP isoform (Table 24). The reaction was terminated with ice-cold acetonitrile (ACN) containing an internal standard (IS, stable isotope-labeled CYP probe metabolite). Negative (vehicle) controls were conducted using the incubation mixture without the TA. Positive controls were performed in parallel using known CYP time-dependent inhibitors. […] The formation of individual CYP probe metabolites was determined by LC-MS/MS.
The enzyme activity was expressed as the peak area ratio of CYP probe metabolite to IS, measured by LC-MS/MS.

[1] = rat, in vivo
P-gp [2] = target: T2, P-gp (Homo sapiens, UniProt P08183); assay: P-gp IC50 assessment, bidirectional digoxin transport in MDR1-MDCK cells
P-gp [3] = target: T2, P-gp; assay: P-gp IC50 assessment, bidirectional digoxin transport in C2BBe1 cells
Experimental: as §1

OATP1B3 = target: T3, OATP1B3 (Homo sapiens, UniProt Q9NPD5); assay: OATP1B3 inhibitor (IC50) assessment, atorvastatin uptake in transfected HEK cells
T3 sequence (Q9NPD5 1-702): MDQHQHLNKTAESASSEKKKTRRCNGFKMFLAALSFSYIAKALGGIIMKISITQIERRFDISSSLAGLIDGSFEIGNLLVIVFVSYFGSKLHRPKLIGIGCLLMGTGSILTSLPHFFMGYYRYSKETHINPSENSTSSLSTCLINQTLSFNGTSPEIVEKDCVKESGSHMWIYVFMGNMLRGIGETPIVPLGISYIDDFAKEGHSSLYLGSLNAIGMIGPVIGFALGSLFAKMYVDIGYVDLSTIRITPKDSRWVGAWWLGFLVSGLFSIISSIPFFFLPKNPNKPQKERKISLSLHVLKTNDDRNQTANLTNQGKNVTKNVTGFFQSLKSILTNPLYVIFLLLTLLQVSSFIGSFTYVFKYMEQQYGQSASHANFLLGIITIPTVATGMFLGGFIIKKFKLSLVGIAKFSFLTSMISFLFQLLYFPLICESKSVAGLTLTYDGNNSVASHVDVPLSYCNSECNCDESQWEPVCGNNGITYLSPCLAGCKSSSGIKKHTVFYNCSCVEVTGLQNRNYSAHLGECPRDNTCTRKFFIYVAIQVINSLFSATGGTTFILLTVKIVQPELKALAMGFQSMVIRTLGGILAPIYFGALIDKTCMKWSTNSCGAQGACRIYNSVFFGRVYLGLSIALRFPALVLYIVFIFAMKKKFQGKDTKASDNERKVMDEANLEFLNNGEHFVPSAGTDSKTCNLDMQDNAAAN

OATP1B1 = target: T4, OATP1B1 (Homo sapiens, UniProt Q9Y6L6); assay: OATP1B1 inhibitor (IC50) assessment, atorvastatin uptake in transfected HEK cells
T4 sequence (Q9Y6L6 1-691): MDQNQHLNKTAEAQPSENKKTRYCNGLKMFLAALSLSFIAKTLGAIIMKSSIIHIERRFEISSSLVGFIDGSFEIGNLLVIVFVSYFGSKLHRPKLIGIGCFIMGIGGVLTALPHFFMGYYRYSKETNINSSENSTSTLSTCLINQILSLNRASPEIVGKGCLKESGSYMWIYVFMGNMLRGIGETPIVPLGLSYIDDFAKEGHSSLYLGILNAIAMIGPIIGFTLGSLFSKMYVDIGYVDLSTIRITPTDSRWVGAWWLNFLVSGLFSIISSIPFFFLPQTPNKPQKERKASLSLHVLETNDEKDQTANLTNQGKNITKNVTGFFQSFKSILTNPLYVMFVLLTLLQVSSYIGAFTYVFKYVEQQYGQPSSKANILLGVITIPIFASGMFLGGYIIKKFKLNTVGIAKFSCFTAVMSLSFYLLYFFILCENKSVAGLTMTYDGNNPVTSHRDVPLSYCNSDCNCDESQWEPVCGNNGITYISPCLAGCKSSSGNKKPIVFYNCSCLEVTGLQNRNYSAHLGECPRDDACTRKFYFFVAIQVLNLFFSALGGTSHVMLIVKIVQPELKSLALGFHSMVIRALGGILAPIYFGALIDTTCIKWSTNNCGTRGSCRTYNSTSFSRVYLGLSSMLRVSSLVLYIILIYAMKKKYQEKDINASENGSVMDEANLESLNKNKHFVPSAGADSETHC

[4] = design: species or system male Sprague Dawley rats; conditions: male, Sprague Dawley, rat, in vivo, po
Experimental: Total urine recovery data for Tenofovir, TDF, and PB was calculated for the 24 hour collection period on Days 1 and 5. […] The reported urine recovery data included amount recovered (ng) and percent recovered (%) for […]. Individual and mean Tenofovir, TDF, and PB urine recovery data were presented with SD, reported to three significant figures, and CV %, reported to one decimal place.

[5] = batch used with Sol_1, Sol_3, and Sol_4, single replicates
[6] = batch used with Sol_2, single replicates
[7] = batch used with Sol_1, Sol_3, and Sol_4, Average
[8] = pH 7.4, % of Control Enzyme Activity

Chain of CYP2C9 (P11712 whole entry, canonical isoform): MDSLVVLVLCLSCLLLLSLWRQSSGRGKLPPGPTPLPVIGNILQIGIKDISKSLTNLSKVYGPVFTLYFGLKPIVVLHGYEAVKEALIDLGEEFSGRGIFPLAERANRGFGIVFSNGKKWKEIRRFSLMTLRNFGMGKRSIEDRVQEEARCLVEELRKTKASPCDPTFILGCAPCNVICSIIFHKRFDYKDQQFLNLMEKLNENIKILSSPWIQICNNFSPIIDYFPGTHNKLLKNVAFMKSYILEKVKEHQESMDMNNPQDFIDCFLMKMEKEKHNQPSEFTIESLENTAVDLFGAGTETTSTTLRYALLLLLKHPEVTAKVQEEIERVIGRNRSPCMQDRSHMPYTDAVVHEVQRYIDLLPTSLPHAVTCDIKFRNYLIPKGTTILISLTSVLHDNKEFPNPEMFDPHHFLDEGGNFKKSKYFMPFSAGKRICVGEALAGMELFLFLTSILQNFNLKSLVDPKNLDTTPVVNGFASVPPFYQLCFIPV
T2 sequence (P08183 whole entry): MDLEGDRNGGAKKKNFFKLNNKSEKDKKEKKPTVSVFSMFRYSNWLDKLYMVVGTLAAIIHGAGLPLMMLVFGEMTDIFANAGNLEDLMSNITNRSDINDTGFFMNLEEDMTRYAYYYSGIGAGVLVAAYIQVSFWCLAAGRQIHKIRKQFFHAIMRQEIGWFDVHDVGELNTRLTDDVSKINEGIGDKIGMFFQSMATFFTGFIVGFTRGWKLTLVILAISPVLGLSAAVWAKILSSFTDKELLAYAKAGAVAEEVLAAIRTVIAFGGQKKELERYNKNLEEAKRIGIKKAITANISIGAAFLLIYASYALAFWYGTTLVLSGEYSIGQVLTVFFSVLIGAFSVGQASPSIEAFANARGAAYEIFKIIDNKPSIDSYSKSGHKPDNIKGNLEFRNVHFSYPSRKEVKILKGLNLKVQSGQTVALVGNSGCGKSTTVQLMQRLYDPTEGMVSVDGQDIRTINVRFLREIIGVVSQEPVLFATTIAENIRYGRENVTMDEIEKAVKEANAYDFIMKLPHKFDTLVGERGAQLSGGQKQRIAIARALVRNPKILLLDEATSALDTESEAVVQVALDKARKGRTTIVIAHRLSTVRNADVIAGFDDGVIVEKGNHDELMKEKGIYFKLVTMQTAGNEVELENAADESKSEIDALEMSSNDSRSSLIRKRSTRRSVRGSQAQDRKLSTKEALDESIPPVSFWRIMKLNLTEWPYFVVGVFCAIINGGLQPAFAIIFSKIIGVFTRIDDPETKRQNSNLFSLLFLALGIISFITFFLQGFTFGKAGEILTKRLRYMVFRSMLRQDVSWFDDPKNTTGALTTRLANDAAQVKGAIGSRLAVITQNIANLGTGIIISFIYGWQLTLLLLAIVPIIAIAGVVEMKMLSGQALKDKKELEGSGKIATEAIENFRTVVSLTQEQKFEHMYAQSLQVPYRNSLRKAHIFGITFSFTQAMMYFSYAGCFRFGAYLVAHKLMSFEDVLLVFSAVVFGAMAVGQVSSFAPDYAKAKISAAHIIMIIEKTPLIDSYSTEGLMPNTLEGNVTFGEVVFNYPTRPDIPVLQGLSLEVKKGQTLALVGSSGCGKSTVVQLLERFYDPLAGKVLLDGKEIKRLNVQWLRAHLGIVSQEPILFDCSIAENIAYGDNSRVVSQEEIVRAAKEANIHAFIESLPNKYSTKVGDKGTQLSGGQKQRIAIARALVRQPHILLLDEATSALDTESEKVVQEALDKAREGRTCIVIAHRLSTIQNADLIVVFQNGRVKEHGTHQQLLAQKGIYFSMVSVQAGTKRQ

Q: With `Nc1nc(Cl)nc2c1ncn2[C@H]1C[C@H](O)[C@@H](CO)O1` [cladribine] as the compound, how does the “AP-to-BL Papp” value (P-gp and BCRP; [5]) read?
A: 0.549 10^−6 cm/s and 0.580 10^−6 cm/s

Q: What about the “BL-to-AP Papp” value (P-gp and BCRP; [5]) of the same compound?
A: 13.3 10^−6 cm/s and 13.0 10^−6 cm/s

Q: And the “AP-to-BL Papp” value (P-gp and BCRP; [6])?
A: 0.612 10^−6 cm/s and 0.554 10^−6 cm/s

Q: And the “BL-to-AP Papp” value (P-gp and BCRP; [6])?
A: 12.4 10^−6 cm/s and 13.1 10^−6 cm/s

Q: And the Papp A→B at 10 µM (P-gp and BCRP; [7])?
A: 0.5 ×10⁻⁶ cm/s

Q: What about the Papp A→B at 10 µM (P-gp and BCRP; [5]) of the same compound?
A: 0.37 ×10⁻⁶ cm/s

Q: And the Papp A→B at 10 µM (P-gp and BCRP; batch used with Sol_2, Average)?
A: 0.648 ×10⁻⁶ cm/s

Q: And the Papp A→B at 10 µM (P-gp and BCRP; [6])?
A: 0.778 ×10⁻⁶ cm/s

Q: What about the recovery at 10 μM (P-gp and BCRP; Caco-2, pH 7.4, AP-to-BL Recovery) of the same compound?
A: 95.3%

Q: And the Papp B→A at 10 µM (P-gp and BCRP; [7])?
A: 13.5 ×10⁻⁶ cm/s

Q: And the Papp B→A at 10 µM (P-gp and BCRP; [5])?
A: 14.1 ×10⁻⁶ cm/s

Q: What about the Papp B→A at 10 µM (P-gp and BCRP; batch used with Sol_2, Average) of the same compound?
A: 12.8 ×10⁻⁶ cm/s

Q: And the Papp B→A at 10 µM (P-gp and BCRP; [6])?
A: 12.8 ×10⁻⁶ cm/s

Q: And the recovery at 10 μM (P-gp and BCRP; Caco-2, pH 7.4, BL-to-AP Recovery)?
A: 92.9%

Q: What about the “BL-to-AP Papp of cladribine” value (BCRP) of the same compound?
A: 15.5 10^−6 cm/s

Q: For `O=C(O)COc1ccc(C(=O)c2cccs2)c(Cl)c1Cl` [Tienilic acid], which “% of Control Enzyme Activity” value (CYP2C9; 10 µM) is on record?
A: 11.7%

Q: What about the “% of Control Enzyme Activity” value (CYP2C9; 30 µM) of the same compound?
A: 9.64%

Q: What about the activity at 30 min, 10 µM (CYP2C9; [8]) of the same compound?
A: 22.2%

Q: What about the activity at 30 min, 30 µM (CYP2C9; [8]) of the same compound?
A: 16.2%

Q: Which “individual Tmax” value [1] does the source give for `C[C@H](Cn1cnc2c(N)ncnc21)OCP(=O)(O)O` [Tenofovir] here?
A: 15 min

Q: Which “Percent Inhibition (P-gp)” value (P-gp [2]; 10 μM Digoxin + 1 μM Valspodar, MDR1-MDCK cells) does the source give for `C/C=C/C[C@@H](C)C(=O)[C@H]1C(=O)N[C@@H](C(C)C)C(=O)N(C)CC(=O)N(C)[C@@H](CC(C)C)C(=O)N[C@@H](C(C)C)C(=O)N(C)[C@@H](CC(C)C)C(=O)N[C@@H](C)C(=O)N[C@H](C)C(=O)N(C)[C@@H](CC(C)C)C(=O)N(C)[C@@H](CC(C)C)C(=O)N(C)[C@@H](C(C)C)C(=O)N1C` [valspodar, reference compound] here?
A: 99.9%

Q: What about the inhibition at 1 μM (P-gp [2]; human, MDR1-MDCK cell monolayers on Transwell plates, pH 7.4, probe digoxin (10 μM)) of the same compound?
A: 99.9%

Q: What about the “Percent Inhibition (P-gp, digoxin efflux)” value (P-gp [3]; C2BBe1 cells, 10 μM digoxin + TUDCA/PB Solution or 1 μM valspodar) of the same compound?
A: 99.3%

Q: What about the inhibition at 1 μM (P-gp [3]; human, pH 7.4) of the same compound?
A: 99.3%

Q: Which results are given for `CO[C@H]1/C=C/O[C@@]2(C)Oc3c(C)c([O-])c4c(O)c(cc(O)c4c3C2=O)NC(=O)/C(C)=C\C=C\[C@H](C)[C@H](O)[C@@H](C)[C@@H](O)[C@@H](C)[C@H](OC(C)=O)[C@@H]1C.[Na+]` [RSV, rifamycin SV]?
A: Net Influx Rate of Atorvastatin (OATP1B3) (OATP1B3; […] Atorvastatin + 10 μM RSV): 0.0551 pmol/mgprotein/minute; Percentage Inhibition of OATP1B3 (OATP1B3; […] Atorvastatin + 10 μM RSV): 98.1%; inhibition of atorvastatin uptake in OATP1B3-transfected cells (OATP1B3; known inhibitor): 98.1%; Net Influx Rate of Atorvastatin (OATP1B1) (OATP1B1; […] Atorvastatin + 10 μM RSV): 0.184 pmol/mg protein/minute; Percentage Inhibition of OATP1B1 (OATP1B1; […] Atorvastatin + 10 μM RSV): 96.7%; inhibition of atorvastatin uptake in OATP1B1-transfected cells (OATP1B1; known inhibitor): 96.7%

Q: For `CC(C)OC(=O)OCOP(=O)(CO[C@H](C)Cn1cnc2c(N)ncnc21)OCOC(=O)OC(C)C` [TDF, Tenofovir Disoproxil Fumarate], which Urine concentrations [4] is on record?
A: Urine concentrations for PB analysis in all animals on Day 1, for TUDCA analysis in all animals on Days 1 and 5, and for TDF analysis in two animals on Day 1 and one animal on Day 5 were BLQ (<20 ng/mL) so no recovery data was calculated.
